{"source": "patent US6852696B2", "about": "“Inhibitors of glycosaminoglycans” (The University of Texas System, priority 1999, dated 2005)", "key": {"[1]": {"details": "systemic, local, or topical administration; co-pending application; cited from earlier work"}, "HA [2]": {"system": "HA", "details": "co-pending application 60/126,475; cited from earlier work"}, "HA [3]": {"system": "HA", "details": "co-pending application 60/126,475; cited from earlier work", "remark": "listed apart in the source"}, "HA [4]": {"system": "HA", "assay": "Adhesion of 35S-labeled B16-F10 melanoma cells to HA-coated plates", "type": "cell-based, mouse", "procedure": "Three different Pep-1 derivatives were compared for their biological activities at the same concentration in terms of the molarity (150 μM) of the 16-mer Pep-1 peptide sequence. […] Data shown are the means+/−S.D. of % binding from quadruplicate samples. Asterisks indicate statistically significant differences (**p<0.01 by two-tailed Student's t-test).\nFIGS. 9A-G. DC-associated HA and DC-dependent T cell proliferation. (A) DO11.10 T cells were cultured with y-irradiated splenic DC and/or OVA323-339 (2 μg/ml) in the presence of intact bPG (250 μg/ml), heat-denatured bPG, or PBS alone. Data shown are the means+/−s.d. (n=3) of ^3H-thymidine uptake. (B) DO11.10 T cells were cultured with the indicated numbers of splenic DC and OVA323-339 in the presence of Pep-1 (300 μM) (open circles), RP (closed circles), or PBS alone (squares). (C) Pep-1 (open circles) or PEG-conjugated Pep-1 (open triangles) were compared at the indicated concentrations (in terms of the molarity of the 12-mer Pep-1 sequence) for their abilities to inhibit the adhesion of ^35S-labeled B16 melanoma cells onto the HA-coated plates (Mummert et al. J. Exp. Med. 192:769-779, 2000). […] Statistically significant differences assessed by a two-tailed Student's t-test for comparing two groups or by analysis of variance (ANOVA) followed by LSD for multiple comparisons are indicated by asterisks (*P<0.05, **P<0.01)."}, "B16-F10 melanoma cells [5]": {"system": "B16-F10 melanoma cells", "assay": "Local growth of s.c. inoculated B16-F10 melanoma", "type": "in vivo, C57BL/6 mice", "details": "40 μg/injection locally, days 0, 3, 6; measured day 10", "procedure": "(§1) FIGS. 4A-C. Impact of Pep-1 on lung metastasis of melanoma. (FIG. 4A) B16-F10 melanoma cells were suspended (4×10^5 cells/ml) in PBS containing Pep-1 monomer (2 or 3 mg/ml) (circles) or 2% DMSO alone (triangles). C57BL/6 mice received i.v. injection of these cell suspensions (500 μl/animal) and were examined for survival. Data shown are the cumulative survival curves from four independent experiments (n=37 for Pep-1 and n=20 for PBS control). […] (FIG. 4B) B16-F10 melanoma cells (1×10^5 cells/animal) were s.c. injected into the back of C57BL/6 mice. Pep-1 or RP (40 μg/injection) was injected locally into the tumor inoculation sites 0. 3. and 6 days after tumor injection. Data shown are the means+/−s.e.m. (n=10) of tumor sizes and tumor weights measured 10 days after tumor inoculation. (FIG. 4C) B16-F10 melanoma cells (2×10^5 cells/well) were cultured in the presence of the indicated concentrations of Pep-1 (closed circles) or PR (open circles). Data shown are the means+/−s.e.m.(n=3) of ^3H-thymidine uptake at 24 hr."}, "B16-F10 melanoma cells [6]": {"system": "B16-F10 melanoma cells", "assay": "In vitro growth of B16-F10 melanoma cells (3H-thymidine uptake)", "type": "cell-based, mouse", "details": "3H-thymidine uptake at 24 hr", "procedure": "as §1"}, "[7]": {"system": "HAase (from bovine testis)", "assay": "HAase-mediated degradation of immobilized biotinylated HA", "type": "biochemical", "details": "500 μg/ml pretreatment", "procedure": "FIGS. 5A-C. Impact of Pep-1 on HA degradation products. (FIG. 5A) 96 well plates were coated with biotinylated-HA (0.1 μg/ml) and pretreated with 500 μg/ml of Pep-1 (open circles), RP (closed circles), or PBS alone (triangles) for 3 hours. These plates were then incubated for 30 min in the presence of HAase (from bovine testis). After extensive wash, the amounts of remaining biotinylated HA on the plates were determined by addition of streptavidin-alkaline phosphatase followed by p-nitrophenyl phosphate substrate. The % HA digestion was calculated from the optical densities. The data shown are the means+/−s.e.m.from triplicate samples analyzed with a hyperbolic model. (FIG. 5B) The impact of Pep-1 on HA digestion and on cell adhesion was examined in parallel using the HA-coated plates prepared simultaneously. Pep-1, RP, or PBS alone was added to the HA-coated plates as above and their effects on HAase-mediated HA degradation and on the adhesion of ^35S-labeled BW5147 thymoma cells were compared. […] Results are expressed as the means+/−s.e.m.from triplicate samples.\nTo test the impact of Pep-1 on HA degradation, the present inventors developed a 96 well-based assay in which biotinylated HA was immobilized onto the plates and treated with HAase. The amounts of HA that remained attached to the wells was then determined by addition of streptavidin-conjugated alkaline phosphatase (FIG. 5A)."}}}
{"sequence": "GAHWQFNALTVR [Pep-1]", "values": [{"measurement": "inhibition of contact hypersensitivity responses", "setting": "[1]", "result": "inhibited the expression of contact hypersensitivity responses"}, {"measurement": "binding to HA", "setting": "HA [2]", "result": "specific binding to soluble, immobilized, and cell-associated forms of HA"}, {"measurement": "inhibition of leukocyte adhesion to HA substrates", "setting": "HA [3]", "result": "inhibited leukocyte adhesion to HA substrates almost completely"}, {"measurement": "blocking of B16-F10 adhesion to HA-coated plates", "setting": "HA [4]", "result": "blocked efficiently"}, {"measurement": "inhibition of HA-mediated cell adhesion", "setting": "HA [4]; 150 μM in terms of molarity of the Pep-1 peptide sequence", "result": "only modest inhibition"}, {"measurement": "effect on local growth in animals following s.c. inoculation", "setting": "B16-F10 melanoma cells [5]", "result": "no apparent effects"}, {"measurement": "effect on in vitro growth of B16-F10 melanoma cells", "setting": "B16-F10 melanoma cells [6]", "result": "no apparent effects"}, {"measurement": "effect on HAase-mediated HA degradation", "setting": "[7]", "result": "failed to affect the degradation of HA substrates"}]}
